Source: article PMC5218480 (PLoS ONE, 2017)

Tested on: MV-4-11 cells
Experiment: Gene expression microarray analysis (Affymetrix PrimeView) and GSEA
Type: cell-based, human
Parameters: RFU PODN (11730768_x_at) / Fold change /veh PODN (11730768_x_at) / RFU LINC00158 (11744669_a_at) / Fold change /veh LINC00158 (11744669_a_at) / RFU DUSP10 (11751237_a_at) / Fold change /veh DUSP10 (11751237_a_at) / RFU ID3 (11757404_x_at) / Fold change /veh ID3 (11757404_x_at) / RFU PLEKHG5 (11737974_s_at) / Fold change /veh PLEKHG5 (11737974_s_at) / RFU LRRC4B (11730491_at) / Fold change /veh LRRC4B (11730491_at) / RFU GIMAP4 (11747438_a_at) / Fold change /veh GIMAP4 (11747438_a_at) / RFU KRT8 (11758183_x_at) / Fold change /veh KRT8 (11758183_x_at) / RFU CNN1 (11734310_a_at) / Fold change /veh CNN1 (11734310_a_at) / RFU VPS37D (11726825_at) / Fold change /veh VPS37D (11726825_at) / RFU C10orf10 (11716522_x_at) / Fold change /veh C10orf10 (11716522_x_at) / RFU KIR2DL2 /// KIR2DL4 /// KIR2DL5A /// KIR2DL5B /// KIR2DS1 /// KIR2DS2 /// KIR2DS3 /// KIR2DS4 /// KIR3DL3 /// KIR3DL3 /// KIR3DS1 (11738374_at) / Fold change /veh KIR2DL2 /// KIR2DL4 /// KIR2DL5A /// KIR2DL5B /// KIR2DS1 /// KIR2DS2 /// KIR2DS3 /// KIR2DS4 /// KIR3DL3 /// KIR3DL3 /// KIR3DS1 (11738374_at) / RFU C1QL1 (11718748_at) / Fold change /veh C1QL1 (11718748_at) / RFU TMPRSS4 (11747572_a_at) / Fold change /veh TMPRSS4 (11747572_a_at) / RFU HAMP (11756126_x_at) / Fold change /veh HAMP (11756126_x_at) / RFU RNFT2 (11725882_a_at) / Fold change /veh RNFT2 (11725882_a_at) / RFU NR4A2 (11747474_a_at) / Fold change /veh NR4A2 (11747474_a_at) / RFU ABCC12 (11746883_a_at) / Fold change /veh ABCC12 (11746883_a_at) / RFU TMEM136 (11760407_x_at) / Fold change /veh TMEM136 (11760407_x_at) / RFU CLDN22 /// WWC2 (11732394_at) / Fold change /veh CLDN22 /// WWC2 (11732394_at) / RFU HLA-DPB1 (11760878_x_at) / Fold change /veh HLA-DPB1 (11760878_x_at) / RFU SPINT1 (11716480_a_at) / Fold change /veh SPINT1 (11716480_a_at) / RFU GAP43 (11754022_s_at) / Fold change /veh GAP43 (11754022_s_at) / RFU A4GNT (11735810_at) / Fold change /veh A4GNT (11735810_at) / RFU PRB3 (11715151_x_at) / Fold change /veh PRB3 (11715151_x_at) / RFU TUBB4B (11761932_at) / Fold change /veh TUBB4B (11761932_at) / RFU CAPN14 (11732068_a_at) / Fold change /veh CAPN14 (11732068_a_at) / RFU TMCC2 (11721928_a_at) / Fold change /veh TMCC2 (11721928_a_at) / RFU IRGQ (11745062_a_at) / Fold change /veh IRGQ (11745062_a_at) / RFU FAM174B (11720279_a_at) / Fold change /veh FAM174B (11720279_a_at) / RFU TMPRSS4 (11748680_a_at) / Fold change /veh TMPRSS4 (11748680_a_at) / RFU FAM212B (11763350_a_at) / Fold change /veh FAM212B (11763350_a_at) / RFU PLEKHG5 (11743358_a_at) / Fold change /veh PLEKHG5 (11743358_a_at) / RFU ZSCAN30 (11745921_a_at) / Fold change /veh ZSCAN30 (11745921_a_at) / RFU CMKLR1 (11741424_a_at) / Fold change /veh CMKLR1 (11741424_a_at) / RFU LOC101060620 /// MAPK8IP1 (11723275_at) / Fold change /veh LOC101060620 /// MAPK8IP1 (11723275_at) / RFU SPTSSB (11747773_x_at) / Fold change /veh SPTSSB (11747773_x_at) / RFU PRSS12 (11739890_at) / Fold change /veh PRSS12 (11739890_at) / RFU BIN1 (11741810_x_at) / Fold change /veh BIN1 (11741810_x_at) / RFU WNT11 (11732464_a_at) / Fold change /veh WNT11 (11732464_a_at) / RFU C10orf10 (11716521_a_at) / Fold change /veh C10orf10 (11716521_a_at) / RFU C5orf56 (11738089_at) / Fold change /veh C5orf56 (11738089_at) / RFU CYB561 (11721691_x_at) / Fold change /veh CYB561 (11721691_x_at) / RFU ANKRD19P (11752326_a_at) / Fold change /veh ANKRD19P (11752326_a_at) / RFU OR2T12 /// OR2T33 /// OR2T8 (11738714_s_at) / Fold change /veh OR2T12 /// OR2T33 /// OR2T8 (11738714_s_at) / RFU VCAN (11748164_a_at) / Fold change /veh VCAN (11748164_a_at) / RFU JSRP1 (11732532_at) / Fold change /veh JSRP1 (11732532_at) / RFU KRTAP10-11 (11738290_x_at) / Fold change /veh KRTAP10-11 (11738290_x_at) / RFU MYO3A (11730013_a_at) / Fold change /veh MYO3A (11730013_a_at) / RFU EBF3 (11725865_a_at) / Fold change /veh EBF3 (11725865_a_at) / RFU CAMK2N1 (11719241_x_at) / Fold change /veh CAMK2N1 (11719241_x_at) / RFU C5orf56 (11738088_a_at) / Fold change /veh C5orf56 (11738088_a_at) / RFU OLFML3 (11715873_a_at) / Fold change /veh OLFML3 (11715873_a_at) / RFU LOC100653217 /// NTM (11731650_a_at) / Fold change /veh LOC100653217 /// NTM (11731650_a_at) / RFU MAPK11 (11762145_a_at) / Fold change /veh MAPK11 (11762145_a_at) / RFU FIZ1 (11724087_x_at) / Fold change /veh FIZ1 (11724087_x_at) / RFU OASL (11726364_x_at) / Fold change /veh OASL (11726364_x_at) / RFU SOX15 (11748057_x_at) / Fold change /veh SOX15 (11748057_x_at) / RFU CD79A (11719716_a_at) / Fold change /veh CD79A (11719716_a_at) / RFU HIST1H1D (11736915_at) / Fold change /veh HIST1H1D (11736915_at) / RFU CASKIN2 (11723855_a_at) / Fold change /veh CASKIN2 (11723855_a_at) / RFU LOC730098 (11760151_x_at) / Fold change /veh LOC730098 (11760151_x_at) / RFU OR4N2 (11742367_at) / Fold change /veh OR4N2 (11742367_at) / RFU PRRT2 (11749266_a_at) / Fold change /veh PRRT2 (11749266_a_at) / RFU SNX32 (11753110_a_at) / Fold change /veh SNX32 (11753110_a_at) / RFU CDHR5 (11726645_a_at) / Fold change /veh CDHR5 (11726645_a_at) / RFU RCAN1 (11760418_a_at) / Fold change /veh RCAN1 (11760418_a_at) / RFU FAM167A (11723789_a_at) / Fold change /veh FAM167A (11723789_a_at) / RFU FAM26E (11764081_at) / Fold change /veh FAM26E (11764081_at) / RFU ISYNA1 (11749810_s_at) / Fold change /veh ISYNA1 (11749810_s_at) / RFU ACY1 (11761880_at) / Fold change /veh ACY1 (11761880_at) / RFU 11764098_at / Fold change /veh 11764098_at / RFU SAMD14 (11745864_x_at) / Fold change /veh SAMD14 (11745864_x_at) / RFU NPB (11741838_a_at) / Fold change /veh NPB (11741838_a_at) / RFU TMPRSS6 (11731388_a_at) / Fold change /veh TMPRSS6 (11731388_a_at) / RFU KRTAP10-2 (11738614_at) / Fold change /veh KRTAP10-2 (11738614_at) / RFU ARHGAP8 /// PRR5-ARHGAP8 (11727945_x_at) / Fold change /veh ARHGAP8 /// PRR5-ARHGAP8 (11727945_x_at) / RFU KRTAP5-7 /// NADSYN1 (11734609_at) / Fold change /veh KRTAP5-7 /// NADSYN1 (11734609_at) / RFU RASL12 (11751679_a_at) / Fold change /veh RASL12 (11751679_a_at) / RFU CDKN2B (11736163_a_at) / Fold change /veh CDKN2B (11736163_a_at) / RFU PRF1 (11729649_at) / Fold change /veh PRF1 (11729649_at) / RFU, ZNF638 /// ZNF638-IT1 / Fold change vs veh, ZNF638 /// ZNF638-IT1 / RFU, PANK3 / Fold change vs veh, PANK3 / RFU, SH3YL1 / Fold change vs veh, SH3YL1 / RFU, ZEB2 / Fold change vs veh, ZEB2 / RFU, NRIP1 / Fold change vs veh, NRIP1 / RFU, PTTG1IP / Fold change vs veh, PTTG1IP / RFU, CAPN2 / Fold change vs veh, CAPN2 / RFU, MED14 / Fold change vs veh, MED14 / RFU, SNORA58 / Fold change vs veh, SNORA58 / RFU, C1orf63 / Fold change vs veh, C1orf63 / RFU, LRRFIP1 / Fold change vs veh, LRRFIP1 / RFU, NDUFAF7 / Fold change vs veh, NDUFAF7 / RFU, SLC12A2 / Fold change vs veh, SLC12A2 / RFU, IBTK / Fold change vs veh, IBTK / RFU, ESF1 / Fold change vs veh, ESF1 / Fold change vs veh, TMEM50B / RFU, TAOK1 / Fold change vs veh, TAOK1 / RFU, ACBD3 / Fold change vs veh, ACBD3 / RFU, TMA16 / Fold change vs veh, TMA16 / RFU, RWDD3 / Fold change vs veh, RWDD3 / RFU, BCAT1 / Fold change vs veh, BCAT1 / RFU, EDEM3 / Fold change vs veh, EDEM3 / RFU, TMEM33 / Fold change vs veh, TMEM33 / RFU, WDR75 / Fold change vs veh, WDR75 / RFU, AHCTF1 / Fold change vs veh, AHCTF1 / RFU, TFRC / Fold change vs veh, TFRC / RFU, ZDHHC17 / Fold change vs veh, ZDHHC17 / RFU, NOM1 / Fold change vs veh, NOM1 / RFU, ARL8B / Fold change vs veh, ARL8B / RFU, ZBTB11 / Fold change vs veh, ZBTB11 / RFU, TAMM41 / Fold change vs veh, TAMM41 / RFU, KIAA1704 /// LOC100996395 / Fold change vs veh, KIAA1704 /// LOC100996395 / RFU, ING1 / Fold change vs veh, ING1 / RFU, TRMT61B / Fold change vs veh, TRMT61B / RFU, FUBP3 / Fold change vs veh, FUBP3 / RFU, TP53 / Fold change vs veh, TP53 / RFU, TNKS2 / Fold change vs veh, TNKS2 / RFU, ZFP14 / Fold change vs veh, ZFP14 / RFU, ACTR2 / Fold change vs veh, ACTR2 / RFU, PPP3R1 / Fold change vs veh, PPP3R1 / RFU, PIK3R1 / Fold change vs veh, PIK3R1 / RFU, HNRNPA1 / Fold change vs veh, HNRNPA1 / RFU, RNF170 / Fold change vs veh, RNF170 / RFU, ZNF28 / Fold change vs veh, ZNF28 / RFU, RNGTT / Fold change vs veh, RNGTT / RFU, OGT / Fold change vs veh, OGT / RFU, BRD1 / Fold change vs veh, BRD1 / RFU, MARS / Fold change vs veh, MARS / RFU, ZNF655 / Fold change vs veh, ZNF655 / RFU, FAHD1 / Fold change vs veh, FAHD1 / RFU, BDP1 / Fold change vs veh, BDP1 / RFU, LRRCC1 / Fold change vs veh, LRRCC1 / RFU, ARID1A / Fold change vs veh, ARID1A / RFU, ZNF146 / Fold change vs veh, ZNF146 / RFU, ZNF330 / Fold change vs veh, ZNF330 / RFU, GPN3 / Fold change vs veh, GPN3 / RFU, C9orf123 / Fold change vs veh, C9orf123 / RFU, N4BP2L2 / Fold change vs veh, N4BP2L2 / RFU, ARFIP1 / Fold change vs veh, ARFIP1 / RFU, FAM179B / Fold change vs veh, FAM179B / RFU, BCL10 / Fold change vs veh, BCL10 / RFU, UHRF1BP1L / Fold change vs veh, UHRF1BP1L / RFU, BET1 / Fold change vs veh, BET1 / RFU, CNOT2 / Fold change vs veh, CNOT2 / RFU, ZNF268 / Fold change vs veh, ZNF268 / Fold change vs veh, ZNF507 / RFU, DGCR2 / Fold change vs veh, DGCR2 / RFU, WDSUB1 / Fold change vs veh, WDSUB1 / Fold change vs veh, HSP90B1 /// MIR3652 / RFU, ADSS / Fold change vs veh, ADSS / RFU, GK / Fold change vs veh, GK / RFU, ZNF148 / Fold change vs veh, ZNF148 / RFU, TAF9 / Fold change vs veh, TAF9 / RFU, SLC1A5 / Fold change vs veh, SLC1A5 / RFU, SLMO2 / Fold change vs veh, SLMO2 / RFU, ABCC4 / Fold change vs veh, ABCC4 / RFU, LOC101060439 /// RAP1B / Fold change vs veh, LOC101060439 /// RAP1B / RFU, RFX7 / Fold change vs veh, RFX7 / RFU, GTPBP10 / Fold change vs veh, GTPBP10 / RFU, CNEP1R1 / Fold change vs veh, CNEP1R1 / RFU, BIVM-ERCC5 /// ERCC5 / Fold change vs veh, BIVM-ERCC5 /// ERCC5 / RFU, ILF3 / Fold change vs veh, ILF3 / RFU 11762660_at / Fold change /veh 11762660_at / RFU VCAN (11757783_s_at) / Fold change /veh VCAN (11757783_s_at) / RFU DDX43 (11728927_at) / Fold change /veh DDX43 (11728927_at) / RFU KRT8 (11758188_x_at) / Fold change /veh KRT8 (11758188_x_at) / RFU NKD1 (11759106_at) / Fold change /veh NKD1 (11759106_at) / RFU SRD5A1 (11742802_a_at) / Fold change /veh SRD5A1 (11742802_a_at) / RFU TPSAB1 /// TPSB2 (11721975_s_at) / Fold change /veh TPSAB1 /// TPSB2 (11721975_s_at) / RFU GSTM3 (11746129_a_at) / Fold change /veh GSTM3 (11746129_a_at) / RFU IL23R (11737362_x_at) / Fold change /veh IL23R (11737362_x_at) / RFU TMEM51 (11727254_a_at) / Fold change /veh TMEM51 (11727254_a_at) / RFU PIWIL2 (11732686_x_at) / Fold change /veh PIWIL2 (11732686_x_at) / RFU ORM1 (11744905_x_at) / Fold change /veh ORM1 (11744905_x_at) / RFU CCDC152 (11743942_at) / Fold change /veh CCDC152 (11743942_at) / RFU ECM1 (11717891_a_at) / Fold change /veh ECM1 (11717891_a_at) / RFU IL23R (11748794_a_at) / Fold change /veh IL23R (11748794_a_at) / RFU TNFAIP8L3 (11732012_x_at) / Fold change /veh TNFAIP8L3 (11732012_x_at) / RFU MBOAT4 (11741988_at) / Fold change /veh MBOAT4 (11741988_at) / RFU 11764193_at / Fold change /veh 11764193_at / RFU TMEM53 (11763286_at) / Fold change /veh TMEM53 (11763286_at) / RFU MAGEB2 (11727129_at) / Fold change /veh MAGEB2 (11727129_at) / RFU TMEM200A (11744735_a_at) / Fold change /veh TMEM200A (11744735_a_at) / RFU CCDC152 (11751479_a_at) / Fold change /veh CCDC152 (11751479_a_at) / RFU FAM211A (11726209_a_at) / Fold change /veh FAM211A (11726209_a_at) / RFU RGS16 (11746705_a_at) / Fold change /veh RGS16 (11746705_a_at) / RFU VCAN (11755009_s_at) / Fold change /veh VCAN (11755009_s_at) / RFU RHOB (11743442_s_at) / Fold change /veh RHOB (11743442_s_at) / RFU RGS16 (11720943_a_at) / Fold change /veh RGS16 (11720943_a_at) / RFU RGS16 (11720944_at) / Fold change /veh RGS16 (11720944_at) / RFU, VPS4B / Fold change vs veh, VPS4B / RFU, CREB1 / Fold change vs veh, CREB1 / RFU, DNAJC13 / Fold change vs veh, DNAJC13 / RFU, GNAQ / Fold change vs veh, GNAQ / RFU, CDK5R1 / Fold change vs veh, CDK5R1 / RFU, ZRANB3 / Fold change vs veh, ZRANB3 / RFU, CUL4A / Fold change vs veh, CUL4A / RFU, CCNY / Fold change vs veh, CCNY / RFU, UFL1 / Fold change vs veh, UFL1 / RFU, COG3 / Fold change vs veh, COG3 / RFU, DIAPH2 / Fold change vs veh, DIAPH2 / RFU, SKA2 / Fold change vs veh, SKA2 / RFU, AFF3 / Fold change vs veh, AFF3 / RFU, LMF1 / Fold change vs veh, LMF1 / RFU, IPO11 / Fold change vs veh, IPO11 / RFU, DFFB / Fold change vs veh, DFFB / RFU, FOXP1 / Fold change vs veh, FOXP1 / RFU, CARD8 / Fold change vs veh, CARD8 / RFU, STRN3 / Fold change vs veh, STRN3 / RFU, ADK / Fold change vs veh, ADK / RFU, RASSF2 / Fold change vs veh, RASSF2 / RFU, WIPF1 / Fold change vs veh, WIPF1 / RFU, LARP1B / Fold change vs veh, LARP1B / RFU, RASA1 / Fold change vs veh, RASA1 / RFU, RB1 / Fold change vs veh, RB1 / RFU, PPFIA1 / Fold change vs veh, PPFIA1 / RFU, MAT2A / Fold change vs veh, MAT2A / RFU, CCT5 / Fold change vs veh, CCT5 / RFU, WDR92 / Fold change vs veh, WDR92 / RFU, CUX1 / Fold change vs veh, CUX1 / RFU, TTC7A / Fold change vs veh, TTC7A / RFU, TMEM135 / Fold change vs veh, TMEM135 / RFU, DEPTOR / Fold change vs veh, DEPTOR / RFU, CPM / Fold change vs veh, CPM / RFU, DNAJB6 / Fold change vs veh, DNAJB6 / RFU, CACNA2D3 / Fold change vs veh, CACNA2D3 / RFU, DTX4 / Fold change vs veh, DTX4 / RFU, TFCP2 / Fold change vs veh, TFCP2 / RFU, GMCL1 /// GMCL1P1 / Fold change vs veh, GMCL1 /// GMCL1P1 / RFU, AEBP2 / Fold change vs veh, AEBP2 / RFU, SNHG1 /// SNORD22 /// SNORD25 /// SNORD26 /// SNORD27 /// SNORD28 /// SNORD29 /// SNORD31 / Fold change vs veh, SNHG1 /// SNORD22 /// SNORD25 /// SNORD26 /// SNORD27 /// SNORD28 /// SNORD29 /// SNORD31 / Fold change (Aza/veh), C12orf56 (ProbeSet 11735607_a_at) / Fold change (ACY-1035/veh), C12orf56 (ProbeSet 11735607_a_at) / Fold change (Aza/veh), FGFR1OP (ProbeSet 11751329_s_at) / Fold change (ACY-1035/veh), FGFR1OP (ProbeSet 11751329_s_at) / Fold change (Aza/veh), VPS36 (ProbeSet 11739960_a_at) / Fold change (ACY-1035/veh), VPS36 (ProbeSet 11739960_a_at) / RFU SYPL1 (11715823_x_at) / Fold change /veh SYPL1 (11715823_x_at) / RFU IGFBP7 (11715501_s_at) / Fold change /veh IGFBP7 (11715501_s_at) / RFU REEP3 (11722064_at) / Fold change /veh REEP3 (11722064_at) / RFU IGLL1 (11728026_x_at) / Fold change /veh IGLL1 (11728026_x_at): dose or concentration left out as unconfirmed
Settings: MV-4-11 cells, 48 hours

Nc1ccc(-c2cccs2)cc1NC(=O)c1ccc2c(c1)cc(C1CC1)n2CCN1CCOCC1 [ACY-1035]
RFU JSRP1 (11732532_at): 43.67 RFU
